Results from PMC9653409, “Generative deep learning enables the discovery of a potent and selective RIPK1 inhibitor” (Nature Communications, 2022).
Like-named read-outs stand apart in the source and are kept apart here.

What was measured:
U937 cells = test: TSZ-induced U937 cell necroptosis model (CCK8); assay type: cell-based; conditions: Homo sapiens, U-937
Protocol: Cell necroptosis protection assays were performed in 96-well cell culture plates. Cells were plated in each well and cultured at 37 °C overnight. […] The cell survival rate was determined using a CCK8 cell viability assay kit and CLARIOstar (v5.61). […] All experiments were performed at least two times, and each EC50 value was expressed as mean ± standard deviation (SD).

RIPK1 = biological target: T1, RIPK1 (Homo sapiens, UniProt Q13546); test: RIPK1 kinase assay, 33P-labeled ATP assay at Eurofins; assay type: biochemical
T1 sequence (Q13546 1-671): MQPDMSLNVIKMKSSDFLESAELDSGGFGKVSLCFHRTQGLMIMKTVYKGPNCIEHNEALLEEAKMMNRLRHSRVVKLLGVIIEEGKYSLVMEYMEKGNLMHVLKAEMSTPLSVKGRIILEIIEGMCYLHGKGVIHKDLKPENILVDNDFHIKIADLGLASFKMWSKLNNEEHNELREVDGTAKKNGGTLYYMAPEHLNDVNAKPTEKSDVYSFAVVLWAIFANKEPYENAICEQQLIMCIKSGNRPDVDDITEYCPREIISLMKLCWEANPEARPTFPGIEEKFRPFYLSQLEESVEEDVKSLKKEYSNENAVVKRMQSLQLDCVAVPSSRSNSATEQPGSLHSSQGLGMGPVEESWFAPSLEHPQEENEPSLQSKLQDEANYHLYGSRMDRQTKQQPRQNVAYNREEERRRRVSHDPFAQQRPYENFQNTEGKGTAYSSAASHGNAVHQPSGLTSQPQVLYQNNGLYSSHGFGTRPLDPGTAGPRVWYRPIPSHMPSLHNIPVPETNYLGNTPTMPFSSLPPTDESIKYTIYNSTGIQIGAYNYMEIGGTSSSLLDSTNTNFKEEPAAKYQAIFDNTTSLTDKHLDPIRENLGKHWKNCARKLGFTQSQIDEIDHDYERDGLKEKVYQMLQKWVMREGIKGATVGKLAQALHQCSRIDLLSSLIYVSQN
Protocol: In vitro kinase activity assays were conducted through the Kinase Profiling Services provided by Eurofins (Eurofins, France). The protocol for the RIPK1 assay is briefly described as follows (Protocols for other kinases are very similar and can be found in http://www.eurofins.com/pharmadiscovery). RIPK1 kinase was incubated with the test compound in assay buffer containing 8 mM MOPS (pH 7.0), 0.2 mM EDTA, 250 μM […], 10 mM magnesium acetate, and 10 μM [γ-33P]-ATP for 15 min at room temperature. The reaction was initiated by the addition of the Mg/ATP mixture. After incubation for 40 min at room temperature, and the reaction was stopped by the addition of 3% phosphoric acid. A 10 μL portion of the reaction mixture was then spotted onto a P30 filter mat and washed four times for 4 min in 0.425% phosphoric acid and once in methanol prior to drying and scintillation counting.

pRIPK1, pRIPK3, pMLKL = test: TNFα-induced SIRS mouse model: liver western blot; assay type: in vivo, C57BL/6 female mice; conditions: 40 mg/kg i.p.
Protocol: The liver in the SIRS model and the colon in the IBD model were harvested, homogenated and sonicated in RIPA lysis buffer.
The cell proteins or tissue proteins were separated in a polyacrylamide gel and transferred to a methanol-activated polyvinylidene fluoride membrane. The membrane was blocked for 2 h in Tris-buffered saline plus Tween-20 containing 5% milk and then immunoblotted sequentially with primary and secondary antibodies. Detection was performed with an ECL chemiluminescence kit (Abbkine). The antibodies used were human RIPK1 antibody (R&D, 334640, 1:1000), mouse RIPK1 antibody (Affinity, DF2642, 1:1000), human phospho-RIP (Ser166) rabbit mAb (Cell Signaling Technologies, 65746, 1:1000), mouse phospho-RIP (Ser321) rabbit mAb (Cell Signaling Technologies, 38662, 1:1000), human RIPK3 (B-2) antibody (Santa Cruz, sc-374639, 1:250), mouse RIPK3 antibody (Abcam, ab62344, 1:1000), human anti-RIP3 (phospho S227) antibody (Abcam, ab209384, 1:2000), mouse anti-RIP3 (phospho T231 + S232) antibody (Abcam, ab205421, 1:500), anti-MLKL (58–70) antibody (Sigma, M6697, 1:250), human anti-MLKL (phospho S358) antibody (Abcam, ab187091, 1:1000), mouse anti-MLKL (phospho S345) antibody (Abcam, ab196436, 1:1000), and β-actin (Proteintech, 66009-1-Ig, 1:1000).

[1] = C57B6, mouse, in vivo

## CC(C)C(=O)Nc1nc2cc(-c3ccc4c(c3)c(C(=O)NC(C)c3ccccc3)cn4C)ccn2n1 (stereo not shown) [RI-962]
U937 cells; 0.000056 μM
  viability at 56 pM: 1.42%
U937 cells; 0.000169 μM
  viability at 0.000169 µM: 0.727%
U937 cells; 0.000508 μM
  viability at 0.000508 µM: 0.579%
U937 cells; 0.001524 μM
  viability at 0.001524 µM: 2.66%
U937 cells; 0.004572 μM
  viability at 0.004572 µM: 8.5%
U937 cells; 0.013717 μM
  viability at 0.013717 µM: 37.9%
U937 cells; 0.041152 μM
  viability at 0.041152 µM: 78%
U937 cells; 0.123457 μM
  viability at 0.123457 µM: 84.5%
U937 cells; 0.370370 μM
  viability at 0.37037 µM: 96.7%
U937 cells; 1.111111 μM
  viability at 1.11111 µM: 96.2%
U937 cells; 3.333333 μM
  viability at 3.33333 µM: 90.4%
U937 cells; U937 treated with TSZ, 24 h
  EC50: 17.8 nM
RIPK1; 1 nM
  activity at 0.001 µM: 82.5%
RIPK1; 3 nM
  activity at 0.003 µM: 95%
RIPK1; 10 nM
  activity at 0.01 µM: 80.5%
RIPK1; 30 nM
  activity at 0.03 µM: 60.5%
RIPK1; 100 nM
  activity at 0.1 µM: 17.5%
RIPK1; 300 nM
  activity at 0.3 µM: -2%
RIPK1; 1000 nM
  activity at 1 µM: 11.5%
RIPK1; 3000 nM
  activity at 3 µM: 3.5%
RIPK1; 10 µM, read-out: Activity (%), RIPK1(h)
  activity at 10 µM: 0%
RIPK1; 10000 nM, read-out: Activity (%) Average
  activity at 10 µM: -3.5%
RIPK1; 33P-labeled ATP assay, read-out: IC50
  IC50: 35 nM
pRIPK1, pRIPK3, pMLKL
  level of pRIPK1 in liver (western blot): substantially reduced the level of phosphorated RIPK1 (pRIPK1)
[1]
  doses well tolerated: up to 250 mg/kg
